Test results published in patent US9266835B2, “Quinoline derivatives useful as CB-1 inverse agonists” (JANSSEN PHARMACEUTICA NV, priority 2014, dated 2016).

Key:
[1] = target: Human CB2R (Cannabinoid receptor 2) (Homo sapiens (Human), UniProt P34972); experiment: CB-2 in vitro cAMP assay (HTRF), inverse agonism; type: cell-based; conditions: mean where tested more than once
Description: (§1) CB1 and CB2 receptors are Gi-coupled GPCR. Activation of CB1 and CB2 receptors results in a decrease in cAMP production. An inverse agonist of the CB1 or CB2 receptor results in the opposite effect, an increase of cAMP production. The principle of this assay is based on HTRF® technology (Homogeneous Time-Resolved Fluorescence). The method is a competitive immunoassay between native cAMP produced by cells and the cAMP labeled with the fluorophore d2. The tracer binding is quantified by a Mab anti-cAMP labeled with Eu3+TBP-NHS Cryptate (supplied as part of the assay kit). The specific signal (i.e. energy transfer) is inversely proportional to the concentration of cAMP in the standard or sample.
(§2) Human CB1R (Cannabinoid receptor 1) was stably transfected in HEK-293 cells (DiscoveRx, cat: 93-0200C1). Human CB2R (Cannabinoid receptor 2) was stably transfected in HEK-293 cells (DiscoveRx, cat: 93-0201C1). Cell cultures were maintained in media: DMEM (Invitrogen Cat#12430-054) supplemented with 10% HI FBS (Invitrogen Cat#16140-071), 1% L-glutamine (Invitrogen Cat#25030-081), 0.2 mg/ml Hygromycin B (Invitrogen Cat#10687-010), 600 μg/mL G418 (Invitrogen Cat#10131-035), and 1X Penn/Strep (Invitrogen 15140-122). After cell expansion, aliquots were cryo-stored in media containing 5% DMSO (Pierce Cat#20684).
(§3) One day prior to experiments media was warmed to 37° C. and the cryo-stored cells were thawed in a 37° C. water bath. The cells were then added to media (10× volume) and the mixture was centrifuged at 1000 RPM for 5 min. The supernate was removed and the cells were re-suspended in media. A sample of the cell suspension was evaluated on a Cedex XS automated cell counter (Innovatis Systems) to determine viable cells/ml. Additional media was added to the cells to achieve a final cell density of 4E5 cells/mL. The cells were then plated into 384 well PDL white solid bottom plates (Greiner, Cat#781945) at 20 μL per well using a Multidrop (Thermo Scientific). Cells were removed from Row P (location of cAMP standards). Two columns of cells were plated into a clear bottom 384 well PDL coated plate (Greiner, Cat#781944) to view confluence the day of the assay. The cell plates were lidded and stored for 15 minutes in a hood, then transferred to an incubator (37° C., 5% CO2, 95% humidity) overnight.
(§4) DMSO was added to all wells of 384 well V bottom polystyrene plate (Greiner, Cat#781280) except to columns 1 and 13, rows 0 and P and wells M13-M23 and N13-N23. Test compounds (60 μL, 10 mM) were added to Column 1 and 13 (A1 through N1 and A13 through L13). Test compounds were serially diluted 1/3 by transferring and mixing 20 μl sample with 40 μL DMSO.
(§5) DMSO (40 μL) was added to wells of 384 well V bottom polystyrene plate: O2 through O11, M14 through M23, N14 through N23, and O14 through O23. AM630 (also known as [6-iodo-2-methyl-1-[2-(4-morpholinyl)ethyl]-1H-indol-3-yl](4-methoxyphenyl)-methanone, Cayman Chemical, Cat#10006974) (60 μL, 10 mM) was added to 01; and 1-(2,4-dichlorophenyl)-7-[(4-fluorophenyl)methylene]-4,5,6,7-tetrahydro-N-1-piperidinyl-1H-indazole-3-carboxamide (60 μL, 10 mM) was added to N13. The control was serially diluted 1/3 by transferring and mixing 20 μl sample with 40 μL DMSO. This process resulted 11 doses per control, 10 mM to […].
(§6) Cells plated the day prior to the assay in clear bottom plates were viewed on an inverse microscope to ensure confluency in the range of 60-75%. […]

[2] = target: Human CB1R (Cannabinoid receptor 1) (Homo sapiens (Human), UniProt P21554); experiment: CB-1 in vitro cAMP assay (HTRF), inverse agonism; type: cell-based; conditions: mean where tested more than once
Description: as §1, §2, §3, §4, §5, §6

Sequence of Human CB1R (Cannabinoid receptor 1) (P21554 whole entry): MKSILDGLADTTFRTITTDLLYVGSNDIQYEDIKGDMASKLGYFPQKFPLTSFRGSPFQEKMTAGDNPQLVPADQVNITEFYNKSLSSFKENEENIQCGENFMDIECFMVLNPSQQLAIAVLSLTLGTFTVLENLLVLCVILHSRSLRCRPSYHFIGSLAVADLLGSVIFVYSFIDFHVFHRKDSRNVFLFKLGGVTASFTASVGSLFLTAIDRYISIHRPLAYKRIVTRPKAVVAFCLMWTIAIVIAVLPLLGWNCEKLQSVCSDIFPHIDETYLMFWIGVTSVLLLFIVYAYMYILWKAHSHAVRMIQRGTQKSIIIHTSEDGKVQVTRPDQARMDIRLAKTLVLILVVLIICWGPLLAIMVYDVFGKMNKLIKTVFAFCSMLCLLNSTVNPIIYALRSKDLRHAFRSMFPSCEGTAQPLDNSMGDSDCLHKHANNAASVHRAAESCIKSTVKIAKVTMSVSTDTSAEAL
Sequence of Human CB2R (Cannabinoid receptor 2) (P34972 whole entry): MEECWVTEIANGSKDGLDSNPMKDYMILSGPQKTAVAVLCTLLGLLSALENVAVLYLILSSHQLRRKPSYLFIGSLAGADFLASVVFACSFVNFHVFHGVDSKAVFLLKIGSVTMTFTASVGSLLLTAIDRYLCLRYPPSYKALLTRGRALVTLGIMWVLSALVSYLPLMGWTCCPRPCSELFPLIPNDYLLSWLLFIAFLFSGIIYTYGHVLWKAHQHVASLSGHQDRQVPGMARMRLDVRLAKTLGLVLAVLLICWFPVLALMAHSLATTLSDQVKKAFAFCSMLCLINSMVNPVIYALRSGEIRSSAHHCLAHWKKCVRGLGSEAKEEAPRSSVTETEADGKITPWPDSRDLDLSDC

EC50 [1] [nM]	EC50 [2] [nM]	SMILES
> 10000	657	CC(C)(C)OC(=O)N1CC[C@@H](Nc2cc(=O)[nH]c3ccc(C(c4ccc(Cl)cc4)c4nccs4)cc23)C1 (stereo partly drawn) [Compound 46, tert-Butyl (3R)-3-({6-[(4-chlorophenyl)(1,3-thiazol-2-yl)methyl]-2-oxo-1,2-dihydroquinolin-4-yl}amino)pyrrolidine-1-carboxylate]
6600	11	O=c1cc(NC2CCN(S(=O)(=O)C(F)(F)F)CC2)c2cc(C(c3ccc(Cl)cc3)c3ccc(Cl)nc3)ccc2[nH]1 (centres unmarked) [Compound #72, 6-[(4-chlorophenyl)(6-chloropyridin-3-yl)methyl]-4-[[1-(trifluoromethane)sulfonylpiperidin-4-yl]amino]-1,2-dihydroquinolin-2-one]
> 10000	375	Clc1ccc(C(c2ccc3nccc(/C=C/c4ccccc4)c3c2)c2cccs2)cc1 (centres unmarked) [Compound 508, 6-[(4-Chlorophenyl)(thiophen-2-yl)methyl]-4-[(E)-2-phenylethenyl]quinoline]
340	884	OC(c1ccc(Cl)cc1)(c1ccc2nccc(/C=C/c3ccccc3)c2c1)c1cscn1 (centres unmarked) [Compound 517, (E)-(4-chlorophenyl)(4-styrylquinolin-6-yl)(thiazol-4-yl)methanol]
> 10000	> 10000	CC(C)(C)OC(=O)COc1cc(NC2CCN(S(=O)(=O)C(F)(F)F)CC2)c2cc(C(c3ccc(Cl)cc3)c3ccc(Cl)cc3)ccc2n1 [Compound 531, tert-Butyl ({6-[bis(4-chlorophenyl)methyl]-4-({1-[(trifluoromethyl)sulfonyl]-piperidin-4-yl}amino)quinolin-2-yl}oxy)acetate]
> 10000	136	Clc1ccc(C(c2ccc3nccc(/C=C/c4ccccc4)c3c2)c2nccs2)cc1 (centres unmarked) [Compound 511, (E)-2((4-chlorophenyl)(4-styrylquinolin-6-yl)methyl)thiazole]
> 10000	14	O=c1cc(NC2CCN(S(=O)(=O)c3ccccc3)CC2)c2cc(C(c3ccc(Cl)cc3)c3ccc(Cl)cc3)ccc2[nH]1 [Compound 80, 6-[Bis(4-chlorophenyl)methyl]-4-{[1-(phenylsulfonyl)piperidin-4-yl]amino}quinolin-2(1H)-one]
200	3270	OC(c1ccc(Cl)cc1)(c1ccc2nccc(/C=C\c3ccccc3)c2c1)c1cscn1 (mixture of isomers) [Compound 516, (Z)-(4-chlorophenyl)(4-styrylquinolin-6-yl)(thiazol-4-yl)methanol]
> 10000	967	NC(=O)Cn1c(=O)cc(NC2CCN(S(=O)(=O)C(F)(F)F)CC2)c2cc(C(c3ccc(Cl)cc3)c3ccc(Cl)cc3)ccc21 [Compound 90, 2-(6-(bis(4-chlorophenyl)methyl)-2-oxo-4-((1-((trifluoromethyl)sulfonyl)piperidin-4-yl)amino)quinolin-1(2H)-yl)acetamide]
9700	293	O=C(O)c1ccc(CN2CCC(Nc3cc(=O)[nH]c4ccc(C(c5ccc(Cl)cc5)c5ccc(Cl)cc5)cc34)CC2)s1 [Compound 128, 5-{[4-({6-[Bis(4-chlorophenyl)methyl]-2-oxo-1,2-dihydroquinolin-4-yl}amino)piperidin-1-yl]methyl}thiophene-2-carboxylic acid]
> 10000	25	O=c1cc(Nc2cccc(C(F)(F)F)c2)c2cc(C(c3ccc(Cl)cc3)c3ccc(Cl)cc3)ccc2[nH]1 [Compound 75, 6-[Bis(4-chlorophenyl)methyl]-4-{[3-(trifluoromethyl)phenyl]amino}-quinolin-2(1H)-one]
> 10000	625	NCCCCNc1cc(C(c2ccc(Cl)cc2)c2ccc(Cl)cc2)cc2c(NC3CCN(S(=O)(=O)C(F)(F)F)CC3)cc(=O)[nH]c12 [Compound 141, 8-((4-aminobutyl)amino)-6-(bis(4-chlorophenyl)methyl)-4-((1-((trifluoromethyl)sulfonyl)piperidin-4-yl)amino)quinolin-2(1H)-one]
1830	8	COc1ccc(C(c2ccc(Cl)cc2)c2ccc3[nH]c(=O)cc(NC4CCN(S(=O)(=O)C(F)(F)F)CC4)c3c2)cc1 (centres unmarked) [Compound #54, 6-((4-chlorophenyl)(4-methoxyphenyl)methyl)-4-((1-((trifluoromethyl)sulfonyl)piperidin-4-yl)amino)quinolin-2(1H)-one]
> 10000	2280	O=c1cc(/C=C/c2ccccc2)c2cc(C(c3ccc(Cl)cc3)c3ccc(Cl)s3)ccc2[nH]1 (centres unmarked) [Compound 31, 6-[(4-Chlorophenyl)(5-chlorothiophen-2-yl)methyl]-4-[(E)-2-phenylethenyl]quinolin-2(1H)-one]
2660	94	CS(=O)(=O)N1CCC(Nc2cc(=O)[nH]c3ccc(C(c4ccc(Cl)cc4)c4ccc(Cl)cc4)cc23)CC1 [Compound 63, 6-[Bis(4-chlorophenyl)methyl]-4-{[1-(methylsulfonyl)piperidin-4-yl]amino}quinolin-2(1H)-one]
> 10000	169	Cn1c(=O)cc(CCc2cccc(Cl)c2)c2cc(C(c3ccc(Cl)cc3)c3nccs3)ccc21 (centres unmarked) [Compound 9, 4-(3-chlorophenethyl)-6-((4-chlorophenyl)(thiazol-2-yl)methyl)-1-methylquinolin-2(1H)-one]
1810	7	O=c1cc(NCc2cccc(C(F)(F)F)c2)c2cc(C(c3ccc(Cl)cc3)c3ccc(Cl)cc3)ccc2[nH]1 [Compound #61, 6-(bis(4-chlorophenyl)methyl)-4-((3-(trifluoromethyl)benzyl)amino)quinolin-2(1H)-one]
> 14000	20	O=c1cc(NC2CCN(S(=O)(=O)C(F)(F)F)CC2)c2cc(C(c3ccc(Cl)cc3)c3ccc(Cl)c(Cl)c3)ccc2[nH]1 (centres unmarked) [Compound #53, 6-[(4-chlorophenyl)(3,4-dichlorophenyl)methyl]-4-[[1-(trifluoromethane)sulfonylpiperidin-4-yl]amino]-1,2-dihydroquinolin-2-one]
> 10000	426	COc1ccc(C(c2ccc(Cl)cc2)c2ccc3[nH]c(=O)cc(/C=C/c4ccccc4)c3c2)cc1 (centres unmarked) [Compound 514, (E)-6-((4-chlorophenyl)(4-methoxyphenyl)methyl)-4-styrylquinolin-2(1H)-one]
> 10000	70	COC(=O)c1ccc(Nc2cc(=O)[nH]c3ccc(C(c4ccc(Cl)cc4)c4ccc(Cl)cc4)cc23)cc1 [Compound 85, Methyl 4-({6-[bis(4-chlorophenyl)methyl]-2-oxo-1,2-dihydroquinolin-4-yl}amino)benzoate]
4500	28	O=C(c1ccccc1)N1CCC(Nc2cc(=O)[nH]c3ccc(C(c4ccc(Cl)cc4)c4ccc(Cl)cc4)cc23)CC1 [Compound 64, 4-((1-benzoylpiperidin-4-yl)amino)-6-(bis(4-chlorophenyl)methyl)quinolin-2(1H)-one]

SMILES	EC50 [1] [nM]	EC50 [2] [nM]
CC(C)(C)Oc1cc(/C=C/c2cccc(F)c2)c2cc(C(O)(c3ccc(Cl)cc3)c3ccsc3)ccc2n1 (centres unmarked) [Compound 518, (E)-(2-(tert-butoxy)-4-(3-fluorostyryl)quinolin-6-yl)(4-chlorophenyl)(thiophen-3-yl)methanol]	540	> 10000
